Data taken from the supplement of paper PMC10307832.

compound: N#CC1(c2ccc(NC(=O)c3cccnc3NCc3ccncc3)cc2)CCCC1 [Apatinib] + COc1cccc2cc(-c3nc([C@H]4CC[C@H](C(=O)O)CC4)n4ncnc(N)c34)[nH]c12 [OSI-027] (partner 0.5 µM); test: relative viability (nuclei count vs DMSO), 5 days (fraction); higher = more cells survive; conditions: first compound 0.08 µM
Procedure, shortened: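 Nuclei were stained with Hoechst during a one-step fixation (final 0.05% Triton X-100, 1% formaldehyde, 1 ug/ml Hoechst) carried out 5 days after dosing, then counted on 4× images. The cells, lung cancer lines in 1536-well plates, had been dosed by pin tool the day after seeding with one drug alone or a fixed anchor-drug dose plus five library-drug doses (not always all listed) in √10 steps. Relative viability is the nuclei count in treated wells divided by that in vehicle wells, and each value is the median of duplicate plates.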

Compared with LXF-289, NCI-H23 is lower in relative viability: 0.81 for the first, 0.637 for the second.

First: NCI-H322M
Second: NCI-H358
The relative viability of the first is lower: 0.551 for the first, 0.898 for the second.

Compared with NCI-H520, NCI-H596 is higher in relative viability: 0.262 for the first, 0.795 for the second.

Going from NCI-H647 to NCI-H650, the relative viability falls from 0.77 to 0.493.

First: NCI-H661
Second: NCI-H727
The relative viability of the first is higher: 0.678 for the first, 0.55 for the second.

Going from NCI-H838 to NCI-H1355, the relative viability falls from 0.456 to 0.391.

First: NCI-H1437
Second: NCI-H1563
The relative viability of the first is higher: 0.84 for the first, 0.812 for the second.

Going from NCI-H1651 to NCI-H1666, the relative viability rises from 0.782 to 0.883.

Compared with NCI-H1734, NCI-H1755 is higher in relative viability: 0.597 for the first, 0.838 for the second.

Compared with NCI-H1792, NCI-H1915 is lower in relative viability: 0.778 for the first, 0.67 for the second.

First: NCI-H1944
Second: NCI-H1975
The relative viability of the first is lower: 0.419 for the first, 0.718 for the second.

First: NCI-H1993
Second: NCI-H2009
The relative viability of the first is lower: 0.627 for the first, 0.796 for the second.

Going from NCI-H2023 to NCI-H2085, the relative viability rises from 0.499 to 0.858.

First: NCI-H2087
Second: NCI-H2126
The relative viability of the first is lower: 0.607 for the first, 0.816 for the second.

Going from NCI-H2228 to NCI-H2347, the relative viability rises from 0.472 to 0.478.

First: NCI-H2405
Second: NCI-H3122
The relative viability of the first is lower: 0.621 for the first, 0.952 for the second.

same assay, conditions: first compound 0.253 µM

First: LU99A
Second: LXF-289
The relative viability of the first is lower: 0.277 for the first, 0.849 for the second.

Compared with NCI-H23, NCI-H322M is lower in relative viability: 0.658 for the first, 0.533 for the second.

Compared with NCI-H358, NCI-H520 is lower in relative viability: 0.789 for the first, 0.229 for the second.

Going from NCI-H596 to NCI-H647, the relative viability falls from 0.656 to 0.619.

Going from NCI-H650 to NCI-H661, the relative viability rises from 0.491 to 0.603.

Going from NCI-H727 to NCI-H838, the relative viability falls from 0.565 to 0.393.

Compared with NCI-H1355, NCI-H1437 is higher in relative viability: 0.396 for the first, 0.954 for the second.

First: NCI-H1563
Second: NCI-H1651
The relative viability of the first is lower: 0.865 for the first, 0.867 for the second.

Compared with NCI-H1666, NCI-H1734 is lower in relative viability: 0.826 for the first, 0.597 for the second.

First: NCI-H1755
Second: NCI-H1792
The relative viability of the first is higher: 0.729 for the first, 0.659 for the second.

Going from NCI-H1915 to NCI-H1944, the relative viability falls from 0.614 to 0.387.

First: NCI-H1975
Second: NCI-H1993
The relative viability of the first is higher: 0.901 for the first, 0.596 for the second.

Going from NCI-H2009 to NCI-H2023, the relative viability falls from 0.617 to 0.42.

First: NCI-H2085
Second: NCI-H2087
The relative viability of the first is higher: 0.706 for the first, 0.458 for the second.

Compared with NCI-H2126, NCI-H2228 is higher in relative viability: 0.641 for the first, 0.761 for the second.

Compared with NCI-H2347, NCI-H2405 is higher in relative viability: 0.354 for the first, 0.579 for the second.

For NCI-H3122, the relative viability was 0.64.

same assay, conditions: first compound 0.8 µM

Going from LU99A to LXF-289, the relative viability rises from 0.259 to 0.745.

Going from NCI-H23 to NCI-H322M, the relative viability falls from 0.535 to 0.52.

Compared with NCI-H358, NCI-H520 is lower in relative viability: 0.772 for the first, 0.219 for the second.

First: NCI-H596
Second: NCI-H647
The relative viability of the first is higher: 0.653 for the first, 0.576 for the second.

Going from NCI-H650 to NCI-H661, the relative viability rises from 0.446 to 0.693.

Compared with NCI-H727, NCI-H838 is lower in relative viability: 0.533 for the first, 0.361 for the second.

Going from NCI-H1355 to NCI-H1437, the relative viability rises from 0.394 to 0.861.

Going from NCI-H1563 to NCI-H1651, the relative viability falls from 0.731 to 0.647.

Compared with NCI-H1666, NCI-H1734 is lower in relative viability: 0.797 for the first, 0.578 for the second.

Going from NCI-H1755 to NCI-H1792, the relative viability falls from 0.699 to 0.693.

First: NCI-H1915
Second: NCI-H1944
The relative viability of the first is higher: 0.672 for the first, 0.361 for the second.

Compared with NCI-H1975, NCI-H1993 is lower in relative viability: 0.55 for the first, 0.549 for the second.

Going from NCI-H2009 to NCI-H2023, the relative viability falls from 0.536 to 0.342.

Going from NCI-H2085 to NCI-H2087, the relative viability falls from 0.767 to 0.468.

First: NCI-H2126
Second: NCI-H2228
The relative viability of the first is higher: 0.666 for the first, 0.547 for the second.

Going from NCI-H2347 to NCI-H2405, the relative viability rises from 0.48 to 0.714.

With NCI-H3122 the relative viability was 0.969.

same assay, conditions: first compound 2.53 µM

Compared with LU99A, LXF-289 is higher in relative viability: 0.243 for the first, 0.763 for the second.

First: NCI-H23
Second: NCI-H322M
The relative viability of the first is lower: 0.46 for the first, 0.518 for the second.

Compared with NCI-H358, NCI-H520 is lower in relative viability: 0.706 for the first, 0.25 for the second.

Going from NCI-H596 to NCI-H647, the relative viability rises from 0.486 to 0.593.

First: NCI-H650
Second: NCI-H661
The relative viability of the first is lower: 0.381 for the first, 0.705 for the second.

Going from NCI-H727 to NCI-H838, the relative viability falls from 0.642 to 0.357.

Going from NCI-H1355 to NCI-H1437, the relative viability rises from 0.374 to 0.615.

Going from NCI-H1563 to NCI-H1651, the relative viability falls from 0.706 to 0.683.

First: NCI-H1666
Second: NCI-H1734
The relative viability of the first is higher: 0.73 for the first, 0.495 for the second.

Compared with NCI-H1755, NCI-H1792 is lower in relative viability: 0.672 for the first, 0.475 for the second.

First: NCI-H1915
Second: NCI-H1944
The relative viability of the first is higher: 0.537 for the first, 0.378 for the second.

Compared with NCI-H1975, NCI-H1993 is higher in relative viability: 0.418 for the first, 0.49 for the second.

First: NCI-H2009
Second: NCI-H2023
The relative viability of the first is higher: 0.337 for the first, 0.296 for the second.

Going from NCI-H2085 to NCI-H2087, the relative viability falls from 0.612 to 0.492.

First: NCI-H2126
Second: NCI-H2228
The relative viability of the first is higher: 0.585 for the first, 0.429 for the second.

First: NCI-H2347
Second: NCI-H2405
The relative viability of the first is lower: 0.361 for the first, 0.604 for the second.

NCI-H3122 showed a relative viability of 0.955.

same assay, conditions: first compound 8 µM

Compared with LU99A, LXF-289 is higher in relative viability: 0.263 for the first, 0.718 for the second.

Going from NCI-H23 to NCI-H322M, the relative viability rises from 0.377 to 0.46.

First: NCI-H358
Second: NCI-H520
The relative viability of the first is higher: 0.692 for the first, 0.224 for the second.

Compared with NCI-H596, NCI-H647 is lower in relative viability: 0.545 for the first, 0.528 for the second.

First: NCI-H650
Second: NCI-H661
The relative viability of the first is lower: 0.388 for the first, 0.603 for the second.

Going from NCI-H727 to NCI-H838, the relative viability falls from 0.466 to 0.422.

Compared with NCI-H1355, NCI-H1437 is higher in relative viability: 0.364 for the first, 0.645 for the second.

Going from NCI-H1563 to NCI-H1651, the relative viability falls from 0.718 to 0.599.

Going from NCI-H1666 to NCI-H1734, the relative viability falls from 0.755 to 0.453.

Going from NCI-H1755 to NCI-H1792, the relative viability falls from 0.523 to 0.439.

Going from NCI-H1915 to NCI-H1944, the relative viability falls from 0.503 to 0.405.

Going from NCI-H1975 to NCI-H1993, the relative viability rises from 0.42 to 0.494.

First: NCI-H2009
Second: NCI-H2023
The relative viability of the first is lower: 0.193 for the first, 0.207 for the second.

Going from NCI-H2085 to NCI-H2087, the relative viability falls from 0.549 to 0.426.

Going from NCI-H2126 to NCI-H2228, the relative viability falls from 0.664 to 0.448.
